Literature values as cited in paper PMC6462165 (International Journal of Nanomedicine, 2019).

System: endothelial cell proliferation
Settings: inhibition of endothelial cell proliferation; cited from earlier work

Q: With IVRRADRAAVP [ES2] as the sequence, how does the “activity relative to the ES sequence” value read?
A: about three times more active than the ES sequence
